Reference: BindingDB's records for doi:10.1111/cbdd.12596 (Nanjing University, 2015)
pIC50: −log10 of the molar value.

Legend:
Test in all cases: VEGFR2 Kinase Assay
Conditions in all cases: pH 7.2; 25 °C
[1] = target: Fibroblast growth factor 2 (Homo sapiens, UniProt P09038)
[2] = target: Epidermal growth factor receptor (Homo sapiens, UniProt P00533)
[3] = target: Vascular endothelial growth factor receptor 2 (Homo sapiens, UniProt P35968)
Experimental: VEGFR kinase assays were set up to assess the level of autophosphorylation based on DELFIA/Time-Resolved Fluorometry. 96-well plates were coated at room temperature for 1-2 h with 100 μL per well of 25 μg mL−1 poly-(Glu4-Tyr) peptide (Sigma) in Tris-buffered saline (TBS) (25 mM Tris, pH 7.2, 150 mM NaCl). Unbound peptide was washed three times with PBS. The cytoplasmic domain of VEGFR-2 enzyme was diluted (depending on the specific activity of the batch, from 10- to 20-fold) in 0.1% BSA/4 mM HEPES. […] Controls were done by adding DMSO alone, i.e., no test compound, to wells containing the master mix of enzyme plus kinase buffer. After 15 min at room temperature, ATP/MgCl2 (20 μL of

Vascular endothelial growth factor receptor 2, sequence (P35968 whole entry, the tested form may be a part): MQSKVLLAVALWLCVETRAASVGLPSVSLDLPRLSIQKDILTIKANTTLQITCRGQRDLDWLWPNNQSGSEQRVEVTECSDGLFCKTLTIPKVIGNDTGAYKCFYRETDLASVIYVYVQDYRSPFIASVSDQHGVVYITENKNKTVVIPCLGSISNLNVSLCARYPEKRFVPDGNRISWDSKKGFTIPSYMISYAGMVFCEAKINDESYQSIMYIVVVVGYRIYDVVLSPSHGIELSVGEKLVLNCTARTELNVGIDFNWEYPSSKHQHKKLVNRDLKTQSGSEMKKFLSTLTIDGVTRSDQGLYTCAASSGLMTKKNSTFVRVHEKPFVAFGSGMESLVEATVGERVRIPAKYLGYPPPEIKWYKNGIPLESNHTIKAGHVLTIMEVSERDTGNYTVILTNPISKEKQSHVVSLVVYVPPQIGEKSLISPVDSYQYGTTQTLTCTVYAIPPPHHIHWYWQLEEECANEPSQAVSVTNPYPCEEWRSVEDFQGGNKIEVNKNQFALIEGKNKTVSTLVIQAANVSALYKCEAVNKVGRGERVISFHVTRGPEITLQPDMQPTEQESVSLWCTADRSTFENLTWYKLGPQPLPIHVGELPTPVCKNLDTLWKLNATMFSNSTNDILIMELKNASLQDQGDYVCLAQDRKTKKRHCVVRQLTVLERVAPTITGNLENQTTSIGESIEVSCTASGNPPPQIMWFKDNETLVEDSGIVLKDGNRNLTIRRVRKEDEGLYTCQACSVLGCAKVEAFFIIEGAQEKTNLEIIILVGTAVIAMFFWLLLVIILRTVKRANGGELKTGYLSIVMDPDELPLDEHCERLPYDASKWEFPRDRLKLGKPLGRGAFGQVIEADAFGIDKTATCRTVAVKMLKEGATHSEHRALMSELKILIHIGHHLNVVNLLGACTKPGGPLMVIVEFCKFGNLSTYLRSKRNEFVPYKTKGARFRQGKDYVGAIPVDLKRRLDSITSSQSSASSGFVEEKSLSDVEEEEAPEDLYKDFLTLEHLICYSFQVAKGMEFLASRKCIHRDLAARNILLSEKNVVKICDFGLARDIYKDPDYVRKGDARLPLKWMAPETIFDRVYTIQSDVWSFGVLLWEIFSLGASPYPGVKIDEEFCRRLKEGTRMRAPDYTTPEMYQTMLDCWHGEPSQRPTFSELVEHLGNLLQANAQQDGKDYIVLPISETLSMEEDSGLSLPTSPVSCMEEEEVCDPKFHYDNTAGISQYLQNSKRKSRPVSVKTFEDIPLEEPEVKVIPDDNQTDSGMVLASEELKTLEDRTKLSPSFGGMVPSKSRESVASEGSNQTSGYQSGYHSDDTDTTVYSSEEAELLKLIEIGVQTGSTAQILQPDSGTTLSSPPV
Epidermal growth factor receptor, sequence (P00533 whole entry): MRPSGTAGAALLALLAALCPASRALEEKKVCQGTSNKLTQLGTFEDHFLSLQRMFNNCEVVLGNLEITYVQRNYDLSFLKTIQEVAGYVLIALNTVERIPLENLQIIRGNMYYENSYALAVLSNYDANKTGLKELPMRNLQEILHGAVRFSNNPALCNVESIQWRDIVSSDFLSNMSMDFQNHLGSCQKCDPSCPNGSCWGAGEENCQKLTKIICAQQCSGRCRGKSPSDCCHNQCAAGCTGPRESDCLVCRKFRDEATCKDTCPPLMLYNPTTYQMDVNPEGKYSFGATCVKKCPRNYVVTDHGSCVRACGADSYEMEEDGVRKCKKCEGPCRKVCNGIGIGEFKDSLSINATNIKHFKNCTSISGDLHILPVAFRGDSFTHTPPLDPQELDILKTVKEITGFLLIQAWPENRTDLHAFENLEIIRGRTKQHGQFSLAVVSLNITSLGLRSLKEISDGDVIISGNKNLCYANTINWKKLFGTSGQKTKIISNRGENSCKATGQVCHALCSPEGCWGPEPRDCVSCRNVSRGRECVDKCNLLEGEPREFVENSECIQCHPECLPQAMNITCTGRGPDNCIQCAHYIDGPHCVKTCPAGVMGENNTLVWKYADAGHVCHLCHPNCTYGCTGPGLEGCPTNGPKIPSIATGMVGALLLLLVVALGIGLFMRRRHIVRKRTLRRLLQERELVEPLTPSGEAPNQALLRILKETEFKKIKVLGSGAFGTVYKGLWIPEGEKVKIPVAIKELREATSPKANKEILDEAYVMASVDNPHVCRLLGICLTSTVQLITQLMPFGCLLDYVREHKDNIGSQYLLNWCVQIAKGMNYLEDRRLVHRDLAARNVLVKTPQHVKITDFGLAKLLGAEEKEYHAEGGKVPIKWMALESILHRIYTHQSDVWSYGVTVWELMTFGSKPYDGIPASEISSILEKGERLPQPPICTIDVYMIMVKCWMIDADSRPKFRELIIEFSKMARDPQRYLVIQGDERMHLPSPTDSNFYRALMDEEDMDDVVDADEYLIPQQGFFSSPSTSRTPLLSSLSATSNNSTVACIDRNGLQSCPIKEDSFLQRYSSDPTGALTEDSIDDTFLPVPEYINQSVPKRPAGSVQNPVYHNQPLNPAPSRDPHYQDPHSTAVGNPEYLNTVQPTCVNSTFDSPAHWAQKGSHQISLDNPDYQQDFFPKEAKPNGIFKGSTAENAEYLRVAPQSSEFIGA

Structure (SMILES) | pIC50 [1] | pIC50 [2] | pIC50 [3]
COc1cccc(N2CCN(CC(O)COc3ncnc4ccccc34)CC2)c1 (configuration not stated) [1-(4-(3-Methoxyphenyl)piperazin-1-yl)-3-(quinazolin-4-yloxy)propan-2-ol (3h)] | 6.99 | 6.68 | 8.54
Cc1cn(CC(O)COc2ncnc3ccccc23)cn1 (configuration not stated) [1-(4-Methyl-1H-imidazol-1-yl)-3-(quinazolin-4-yloxy)propan-2-ol (3v)] | 6.23 | 6.35 | 7.13
OC(COc1ncnc2ccccc12)CN1CCN(c2ccc(F)cc2)CC1 (configuration not stated) [1-(4-(4-Fluorophenyl)piperazin-1-yl)-3-(quinazolin-4-yloxy)propan-2-ol (3e)] | 6.52 | 6.39 | 7.66
CCN1CCN(CC(O)COc2ncnc3ccccc23)CC1 (configuration not stated) [1-(4-Ethylpiperazin-1-yl)-3-(quinazolin-4-yloxy)propan-2-ol (3p)] | 6.29 | 6.34 | 7.26
COc1cc2nccc(Oc3ccc(NC(=O)Nc4cc(C)on4)c(Cl)c3)c2cc1OC [Tivozanib] | 6.94 |  | 
OC(COc1ncnc2ccccc12)CN1CCN(Cc2ccccc2)CC1 (configuration not stated) [1-(4-Benzylpiperazin-1-yl)-3-(quinazolin-4-yloxy)propan-2-ol (3n)] | 6.35 | 6.36 | 7.28
OC(COc1ncnc2ccccc12)CN1CCN(c2ccccc2)CC1 (configuration not stated) [1-(4-Phenylpiperazin-1-yl)-3-(quinazolin-4-yloxy)propan-2-ol (3a)] | 6.53 | 6.40 | 7.49
OC(COc1ncnc2ccccc12)CN1CCOCC1 (configuration not stated) [1-Morpholino-3-(quinazolin-4-yloxy)propan-2-ol (3r)] | 6.22 | 6.32 | 7.09
OC(COc1ncnc2ccccc12)CN1CCN(c2cccc(C(F)(F)F)c2)CC1 (configuration not stated) [1-(4-(3-(Trifluoromethyl)phenyl)piperazin-1-yl)-3-(quinazolin-4-yloxy)propan-2-ol (3j)] | 6.84 | 6.51 | 8.30
OC(COc1ncnc2ccccc12)CN1CCN(c2cccc(Cl)c2Cl)CC1 (configuration not stated) [1-(4-(2,3-Dichlorophenyl)piperazin-1-yl)-3-(quinazolin-4-yloxy)propan-2-ol (3k)] | 6.40 | 6.39 | 7.32
CN1CCN(CC(O)COc2ncnc3ccccc23)CC1 (configuration not stated) [1-(4-Methylpiperazin-1-yl)-3-(quinazolin-4-yloxy)propan-2-ol (3o)] | 6.38 | 6.32 | 7.23
CN(C)CC(O)COc1ncnc2ccccc12 (configuration not stated) [1-(Dimethylamino)-3-(quinazolin-4-yloxy)propan-2-ol (3q)] | 6.24 | 6.34 | 7.20
OC(COc1ncnc2ccccc12)Cn1ccnc1 (configuration not stated) [1-(1H-Imidazol-1-yl)-3-(quinazolin-4-yloxy)propan-2-ol (3t)] | 6.22 | 6.32 | 7.07
OC(COc1ncnc2ccccc12)CN1CCCCC1 (configuration not stated) [1-(Piperidin-1-yl)-3-(quinazolin-4-yloxy)propan-2-ol (3s)] | 6.23 | 6.32 | 7.10
COc1ccccc1N1CCN(CC(O)COc2ncnc3ccccc23)CC1 (configuration not stated) [1-(4-(2-Methoxyphenyl)piperazin-1-yl)-3-(quinazolin-4-yloxy)propan-2-ol (3g)] | 6.68 | 6.45 | 8.00
Cc1nccn1CC(O)COc1ncnc2ccccc12 (configuration not stated) [1-(2-Methyl-1H-imidazol-1-yl)-3-(quinazolin-4-yloxy)propan-2-ol (3u)] | 6.23 | 6.35 | 7.25
OC(COc1ncnc2ccccc12)CN1CCN(c2ccccc2F)CC1 (configuration not stated) [1-(4-(2-Fluorophenyl)piperazin-1-yl)-3-(quinazolin-4-yloxy)propan-2-ol (3d)] | 6.43 | 6.39 | 7.46
Cc1ccc(N2CCN(CC(O)COc3ncnc4ccccc34)CC2)c(C)c1 (configuration not stated) [1-(4-(2,4-Dimethylphenyl)piperazin-1-yl)-3-(quinazolin-4-yloxy)propan-2-ol (3m)] | 6.65 | 6.40 | 7.91
O=[N+]([O-])c1ccc(N2CCN(CC(O)COc3ncnc4ccccc34)CC2)cc1 (configuration not stated) [1-(4-(4-Nitrophenyl)piperazin-1-yl)-3-(quinazolin-4-yloxy)propan-2-ol (3f)] | 6.61 | 6.42 | 7.78
OC(COc1ncnc2ccccc12)CN1CCN(c2ccc(Cl)c(Cl)c2)CC1 (configuration not stated) [1-(4-(3,4-Dichlorophenyl)piperazin-1-yl)-3-(quinazolin-4-yloxy)propan-2-ol (3l)] | 6.75 | 6.46 | 8.07
OC(COc1ncnc2ccccc12)CN1CCN(c2cccc(Cl)c2)CC1 (configuration not stated) [1-(4-(3-Chlorophenyl)piperazin-1-yl)-3-(quinazolin-4-yloxy)propan-2-ol (3c)] | 6.40 | 6.38 | 7.32
OC(COc1ncnc2ccccc12)CN1CCN(c2ccccc2Cl)CC1 (configuration not stated) [1-(4-(2-Chlorophenyl)piperazin-1-yl)-3-(quinazolin-4-yloxy)propan-2-ol (3b)] | 6.30 | 6.38 | 7.30
COc1ccc(N2CCN(CC(O)COc3ncnc4ccccc34)CC2)cc1 (configuration not stated) [1-(4-(4-Methoxyphenyl)piperazin-1-yl)-3-(quinazolin-4-yloxy)propan-2-ol (3i)] | 6.91 | 6.56 | 8.47
